The record followed here is ChEMBL document CHEMBL3871268, “Chalcogen containing heterocyclic scaffolds: New hybrids with antitumoral activity” (Eur J Med Chem, 2016).

Series [1] in a line: Cell cycle arrest in human MCF7 cells assessed as M1 quadrant cells at 50 uM pretreated with pan-caspase inhibitor Z-VAD-FMK for 1 hr followed by compound addition measured after 48 hrs by propidium iodide staining-based flow cytometry assay (reference value: 98.1%). Set-up: scale not given: the % may be the effect or the level left. Format: functional. Background: In flow cytometry, cells or beads pass a laser one at a time.

A short description of series [2]: Cell cycle arrest in human MCF7 cells assessed as sub-diploid cells at 50 uM pretreated with pan-caspase inhibitor Z-VAD-FMK for 1 hr followed by compound addition measured after 48 hrs by propidium iodide staining-based flow cytometry assay (reference value: 1.9%). Format: functional. Set-up: scale not given: the % may be the effect or the level left.
The nature of series [3]: Cytotoxicity against human MCF7 cells assessed as reduction in cell viability measured after 72 hrs by MTT assay. Format: functional. The following applies: MCF7, 72 h. For orientation: Formazan colour is commonly taken as a measure of viable cells.
Series [4] can be described thus: Cytotoxicity against human PC3 cells assessed as reduction in cell viability measured after 72 hrs by MTT assay. Format: functional. The note with it: PC-3, 72 h.
Series [5] can be described thus: Cytotoxicity against human 184B5 cells assessed as reduction in cell viability measured after 72 hrs by MTT assay. It counts as toxicity, cell-based. The note with it: for GI50 at 72 h: 184B5 cells; for LC50 / TGI: 184b5, 72 h.
Series [6] deals with MCF7. Put plainly: Selectivity index, ratio of GI50 for human 184B5 cells to GI50 for human MCF7 cells. It counts as functional.
Series [7] can be described thus: Cell cycle analysis in human MCF7 cells assessed as accumulation at SubG1 phase at 6 uM measured after 24 hrs by propidium iodide staining-based flow cytometry (reference value: 2.6%). Format: functional.
Series [8] can be described thus: Cell cycle analysis in human MCF7 cells assessed as accumulation at G0/G1 phase at 6 uM measured after 24 hrs by propidium iodide staining-based flow cytometry (reference value: 73.6%). Format: functional.
Series [9] can be described thus: Cell cycle analysis in human MCF7 cells assessed as accumulation at S phase at 6 uM measured after 24 hrs by propidium iodide staining-based flow cytometry (reference value: 15.3%). Format: functional.
A short description of series [10]: Cell cycle analysis in human MCF7 cells assessed as accumulation at G2/M phase at 6 uM measured after 24 hrs by propidium iodide staining-based flow cytometry (reference value: 8.9%). It counts as functional.

Each structure is given as a SMILES string. Residues, ends and D or L forms follow the SMILES beside them. *: point of attachment. Cbz = O=C(OCc1ccccc1)*; CH2F = FC*

Consider `CC(C)[C@H](NC(=O)OCc1ccccc1)C(=O)N[C@@H](C)C(=O)N[C@@H](CC(=O)O)C(=O)CF` (Cbz-Val-Ala-Asp-CH2F), for which the values for the Activity in [1] and in series [2] were 96.1% and 3.9%, respectively.
In the case of `C[Se](=O)O`, in series [3], the GI50 (usually the concentration that inhibits growth by half) is 1.3 µM; the LC50 – broadly, the concentration that kills 50% of the test population – is more than 100 µM; the concentration for total growth inhibition (TGI) (usually the concentration giving total growth inhibition) is 3.4 µM. Besides, in [4], the GI50 was 2.5 µM, the LC50 (concentration lethal to 50% of cells) was determined as 37.1 µM and the TGI amounted to 8.4 µM. Besides, in [5], the GI50 at 72 h came to 1.8 µM, the LC50 is more than 100 µM and the TGI stood at 3.8 µM. Also, the RatioGI50 in [6] is on record as 1.4.
Turning to `O=C1c2ccccc2C(=O)N1C[SeH]`, in series [3], the GI50 amounted to 6 µM, the LC50 stood at 12.5 µM and the TGI amounted to 8.2 µM. Further, in series [4], the GI50 was 6.4 µM, the LC50 (concentration lethal to 50% of cells) turned out to be 16.9 µM and the TGI turned out to be 9.4 µM. For the same compound, in series [5], the GI50 at 72 h was determined as 12.7 µM, the LC50 stood at 21.9 µM and the TGI came out at 17.4 µM. In series [6], the RatioGI50 is 2.1.
As for `C[Se]c1nc2ccccc2s1`, in series [3], the GI50 is 7.2 µM, the LC50 is more than 100 µM and the TGI is more than 100 µM. In [4], the GI50 is more than 100 µM, the LC50 (concentration lethal to 50% of cells) is more than 100 µM and the TGI was more than 100 µM. Further, in series [5], the GI50 at 72 h was more than 100 µM, the LC50 was more than 100 µM and the TGI is more than 100 µM. Moreover, the RatioGI50 in series [6] is more than 13.9.
Turning to `SCc1cc2c(cc1Br)OCO2`, in [3], the GI50 turned out to be 3.2 µM, the LC50 is more than 100 µM and the concentration for total growth inhibition (TGI) was more than 100 µM. In [4], the GI50 came to 87.5 µM, the LC50 (concentration lethal to 50% of cells) was more than 100 µM and the TGI is more than 100 µM. In [5], the GI50 at 72 h was more than 100 µM, the LC50 was more than 100 µM and the TGI was more than 100 µM. Moreover, the RatioGI50 in series [6] is reported as more than 37.
Regarding `CC[C@@]1(O)C(=O)OCc2c1cc1n(c2=O)Cc2cc3ccccc3nc2-1`, the Activity in [7] came out at 4.4%; in [8] it was 54.6%; in [9], 16.3%; in [10] it was 25.8%.
Regarding `N#CSCc1ccc(-n2cccc2)cc1`, in [3], the GI50 is 8.2 µM, the LC50 is more than 100 µM and the TGI came out at 36.9 µM. In [4], the GI50 stood at 14.1 µM, the LC50 (concentration lethal to 50% of cells) worked out at 88.1 µM and the TGI came to 60.3 µM. Besides, in series [5], the GI50 at 72 h was 12.9 µM, the LC50 is more than 100 µM and the TGI was 23.5 µM. Further, in series [6], the RatioGI50 was 1.6.
With `N#CSCc1c2ccccc2nc2ccccc12`, in series [3], the GI50 is 0.9 µM, the 50% lethal concentration (LC50) turned out to be 34.4 µM and the TGI amounted to 17.5 µM. Moreover, in series [4], the GI50 was 1.5 µM, the LC50 (concentration lethal to 50% of cells) was 28.3 µM and the TGI worked out at 2.4 µM. Also, in series [5], the GI50 at 72 h stood at 14.4 µM, the LC50 was found to be 38.5 µM and the TGI stood at 26.4 µM. In series [6], the RatioGI50 is listed as 16.
Take `N#CSCc1cc2c(cc1Br)OCO2`: in [3], the GI50 was determined as 6.7 µM, the LC50 was more than 100 µM and the TGI was more than 100 µM. For the same compound, in series [4], the GI50 came to 23.8 µM, the LC50 (concentration lethal to 50% of cells) is 74.2 µM and the concentration for total growth inhibition (TGI) worked out at 41.8 µM. In series [5], the GI50 at 72 h is more than 100 µM, the LC50 is more than 100 µM and the TGI was more than 100 µM. Moreover, the RatioGI50 in [6] is given as more than 14.9.
As for `Cc1noc(C)c1C[Se]C#N`, in series [3], the GI50 turned out to be 2.2 µM, the LC50 turned out to be 24.5 µM and the TGI came out at 8.3 µM. Moreover, in [4], the GI50 was 5.6 µM, the LC50 (concentration lethal to 50% of cells) was 17.6 µM and the TGI was determined as 10.3 µM. In [5], the GI50 at 72 h came to 2 µM, the LC50 was found to be 22.8 µM and the TGI was determined as 4 µM. Also, the RatioGI50 in [6] is given as less than 1.
As for `[SeH]c1ccnc([SeH])n1`, in [3], the GI50 is 6.7 µM, the LC50 was found to be 75.4 µM and the total growth inhibition concentration (TGI) stood at 40 µM. In series [4], the GI50 is 9.8 µM, the LC50 (concentration lethal to 50% of cells) was determined as 51.3 µM and the TGI was determined as 28.3 µM. In addition, in series [5], the GI50 at 72 h turned out to be 10.7 µM, the LC50 stood at 63.7 µM and the TGI turned out to be 35.3 µM. Also, the RatioGI50 in [6] is recorded as 1.6.
With `CSc1ccc2ccccc2n1`, in [3], the GI50 was more than 100 µM, the LC50 was more than 100 µM and the TGI was more than 100 µM. In series [4], the 50% growth inhibitory concentration (GI50) stood at 87 µM, the LC50 (concentration lethal to 50% of cells) was more than 100 µM and the TGI was more than 100 µM. For the same compound, in series [5], the GI50 at 72 h was more than 100 µM, the LC50 was more than 100 µM and the TGI is more than 100 µM.
